US20260022142A1, “MACROCYCLIC IMMUNOMODULATORS” (Bristol-Myers Squibb Company, priority 2022, published 2026)
Bridge positions count the residues as written; N and C are the ends. Square brackets hold non-standard residues; d marks the D form. Peptide text beside a SMILES is read from it. * marks the point of attachment. ξ: configuration not given here. Phe(4-CONH2) = NC(=O)c1ccc(C[C@H](N)C(=O)O)cc1; Bip = N[C@@H](Cc1ccc(-c2ccccc2)cc1)C(=O)O; Phe(3-Me) = Cc1cccc(C[C@H](N)C(=O)O)c1; Val(3-OH) = CC(C)(O)[C@H](N)C(=O)O; 4Pal = N[C@@H](Cc1ccncc1)C(=O)O; Cha = N[C@@H](CC1CCCCC1)C(=O)O; Thr(3ξ) = CC(O)[C@H](N)C(=O)O; Carboxymethyl = O=C(O)C*; Orn = NCCC[C@H](N)C(=O)O; Aun = NCCCCCCCCCCC(=O)O; Dab = NCC[C@H](N)C(=O)O

Target: T1, PD-1/PD-L1 interaction (PE-labeled human PD-L1-Ig binding to Jurkat cell line over-expressing human PD-1) (Homo sapiens, UniProt Q15116)
T1 construct: expressed in transfected cells; host or cells: Jurkat
T1 sequence (Q15116 25-288): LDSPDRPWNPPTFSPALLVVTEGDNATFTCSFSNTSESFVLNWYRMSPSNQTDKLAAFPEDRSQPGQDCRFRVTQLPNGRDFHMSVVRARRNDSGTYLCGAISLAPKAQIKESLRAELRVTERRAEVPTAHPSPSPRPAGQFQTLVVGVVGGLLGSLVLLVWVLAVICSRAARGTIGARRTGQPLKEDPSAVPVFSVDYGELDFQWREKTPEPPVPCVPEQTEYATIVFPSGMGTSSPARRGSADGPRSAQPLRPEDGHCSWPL
Assay: Jurkat-PD-1 Cell Binding High-Content Screening Assay (CBA)
Type: cell-based
Conditions: Jurkat cell line over-expressing human PD-1; PE-labeled PD-L1-Ig 20 nM final; read-out: Jurkat hPD1-PDL1 IC50
Summary of the method: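 Jurkat-hPD-1 cells, DMEM/10% FCS; cpd 2 h 37° C; PE-PD-L1-Ig 20 nM final, 1 h; 4% PFA fix + Hoechst 33342, 3× dPBS wash; high-content imaging read-out.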

Row | SMILES | IC50 [nM]
1 | Cc1cccc(C[C@@H]2NC(=O)[C@H](CC(=O)O)NC(=O)[C@H](Cc3ccc(OCC(=O)O)cc3)NC(=O)[C@H](Cc3ccncc3)NC(=O)CSC[C@@H](C(=O)N[C@@H](CCN)C(=O)NCCCCCCCCCCC(=O)O)NC(=O)[C@H](CO)NC(=O)[C@H](C(C)(C)O)NC(=O)[C@H](CC3CCCCC3)NC(=O)[C@H](Cc3cnc[nH]3)NC(=O)[C@@H](CC(C)C)NC(=O)[C@H](CCCN)NC(=O)[C@H](Cc3ccc(OCC(=O)O)cc3)NC(=O)[C@H](Cc3ccc(-c4ccccc4)cc3)NC(=O)[C@H](Cc3ccc(OCC(=O)O)cc3)NC2=O)c1 [Compound 3721] ({CH2CO}-[4Pal]Y(Carboxymethyl)D[Phe(3-Me)]Y(Carboxymethyl)[Bip]Y(Carboxymethyl)[Orn][dL]H[Cha][Val(3-OH)]SC[Dab][Aun]-OH; thioether N-14) | 18.4
2 | Cc1cccc(C[C@@H]2NC(=O)[C@H](CC(=O)O)NC(=O)[C@H](Cc3ccc(OCC(=O)O)cc3)NC(=O)[C@H](Cc3ccncc3)NC(=O)CSC[C@@H](C(=O)N[C@@H](CO)C(=O)NCCCCCCCCCCC(=O)O)NC(=O)[C@H](CO)NC(=O)[C@H](C(C)(C)O)NC(=O)[C@H](CC3CCCCC3)NC(=O)[C@H](Cc3cnc[nH]3)NC(=O)[C@@H](CC(C)C)NC(=O)[C@H](CCCN)NC(=O)[C@H](Cc3ccc(OCC(=O)O)cc3)NC(=O)[C@H](Cc3ccc(-c4ccccc4)cc3)NC(=O)[C@H](Cc3ccc(OCC(=O)O)cc3)NC2=O)c1 [Compound 3722] ({CH2CO}-[4Pal]Y(Carboxymethyl)D[Phe(3-Me)]Y(Carboxymethyl)[Bip]Y(Carboxymethyl)[Orn][dL]H[Cha][Val(3-OH)]SCS[Aun]-OH; thioether N-14) | 41.2
3 | Cc1cccc(C[C@@H]2NC(=O)[C@H](CC(=O)O)NC(=O)[C@H](Cc3ccc(OCC(=O)O)cc3)NC(=O)[C@H](C(C)O)NC(=O)CSC[C@@H](C(=O)N[C@@H](CO)C(=O)NCCCCCCCCCCC(=O)O)NC(=O)[C@H](CO)NC(=O)[C@H](C(C)(C)O)NC(=O)[C@H](CC3CCCCC3)NC(=O)[C@H](Cc3cnc[nH]3)NC(=O)[C@@H](CC(C)C)NC(=O)[C@H](CCCN)NC(=O)[C@H](Cc3ccc(OCC(=O)O)cc3)NC(=O)[C@H](Cc3ccc(-c4ccccc4)cc3)NC(=O)[C@H](Cc3ccc(OCC(=O)O)cc3)NC2=O)c1 (stereo partly drawn) [Compound 3723] ({CH2CO}-[Thr(3ξ)]Y(Carboxymethyl)D[Phe(3-Me)]Y(Carboxymethyl)[Bip]Y(Carboxymethyl)[Orn][dL]H[Cha][Val(3-OH)]SCS[Aun]-OH; thioether N-14) | 84.1

Next, values leading:

Row | IC50 [nM] | SMILES
4 | 73.9 | Cc1cccc(C[C@@H]2NC(=O)[C@H](CC(=O)O)NC(=O)[C@H](Cc3ccc(OCC(=O)O)cc3)NC(=O)[C@H](CCN)NC(=O)CSC[C@@H](C(=O)N[C@@H](CO)C(=O)NCCCCCCCCCCC(=O)O)NC(=O)[C@H](CO)NC(=O)[C@H](C(C)(C)O)NC(=O)[C@H](CC3CCCCC3)NC(=O)[C@H](Cc3cnc[nH]3)NC(=O)[C@@H](CC(C)C)NC(=O)[C@H](CCCN)NC(=O)[C@H](Cc3ccc(OCC(=O)O)cc3)NC(=O)[C@H](Cc3ccc(-c4ccccc4)cc3)NC(=O)[C@H](Cc3ccc(OCC(=O)O)cc3)NC2=O)c1 [Compound 3724] ({CH2CO}-[Dab]Y(Carboxymethyl)D[Phe(3-Me)]Y(Carboxymethyl)[Bip]Y(Carboxymethyl)[Orn][dL]H[Cha][Val(3-OH)]SCS[Aun]-OH; thioether N-14)
5 | 30.5 | Cc1cccc(C[C@@H]2NC(=O)[C@H](CC(=O)O)NC(=O)[C@H](Cc3ccc(OCC(=O)O)cc3)NC(=O)[C@H](CCN)NC(=O)CSC[C@@H](C(=O)N[C@@H](CO)C(=O)NCCCCCCCCCCC(=O)O)NC(=O)[C@H](C(C)O)NC(=O)[C@H](C(C)(C)O)NC(=O)[C@H](CC3CCCCC3)NC(=O)[C@H](CCN)NC(=O)[C@@H](CC(C)C)NC(=O)[C@H](CCCN)NC(=O)[C@H](Cc3ccc(O)cc3)NC(=O)[C@H](Cc3ccc(-c4ccccc4)cc3)NC(=O)[C@H](Cc3ccc(C(N)=O)cc3)NC2=O)c1 (stereo partly drawn) [Compound 3725] ({CH2CO}-[Dab]Y(Carboxymethyl)D[Phe(3-Me)][Phe(4-CONH2)][Bip]Y[Orn][dL][Dab][Cha][Val(3-OH)][Thr(3ξ)]CS[Aun]-OH; thioether N-14)
